This is an account of results in US10550165B2, “Peptide for inducing regeneration of tissue and use thereof” (STEMRIM INC., priority 2011, dated 2020).

This experiment concerns mouse bone marrow mesenchymal stem cell line (MSC-1 cells), PDGFRα-positive. Description: Migration assay (Boyden / 48-well chemotaxis chamber) on bone marrow mesenchymal stem cell line MSC-1. It counts as cell-based. To be noted: for activity of promoting the migration of MSC-1: peptides produced using HEK293, concentration not stated. Here is the method:
Cells of a mouse bone marrow mesenchymal stem cell line (MSC-1 cells, established by Tamai et al. of Osaka University (PDGFRα-positive cells in bone marrow are mobilized by high mobility group box 1 (HMGB1) to regenerate injured epithelia. (Tamai et al., Proc Natl Acad Sci USA. Apr. 4, 2011))) were detached from dishes using trypsin, and collected by centrifugation at 1200 rpm and 4° C. for 10 minutes. The resulting pellet was loosened and suspended at a cell concentration of 2.0×10^6 to 3.0×10^6 cells/ml by adding Dulbecco's Modified Eagle Medium (D-MEM) containing 10% fetal bovine serum (FBS). The recombinant protein and peptides produced in HEK293 were diluted with D-MEM containing 10% FBS. The negative control used was phosphate buffered saline (PBS). An acrylic Boyden chamber was used; cells of the mouse bone marrow mesenchymal stem cell line prepared at a cell concentration of 3×10^6 cells/ml were placed in its upper layer, while a diluted protein or peptide is added to the bottom layer. More specifically, a 28 μl aliquot of a protein or peptide solution was added to each well of the bottom plate of a 48-well chemotaxis chamber (NEURO PROBE 48WELL CHEMOTAXIS CHAMBER), and a polycarbonate membrane with 8 μm pores (Neuro Probe, Inc, Cat: 866-417-0014) was placed on the bottom plate. Then, an upper plate was placed on the membrane and screwed tightly. 50 μl of cells of the mouse bone marrow mesenchymal stem cell line after concentration adjustment were added to the upper plate wells. The chamber was placed in an incubator under 5% CO2 at 37° C. After four hours, the membrane was removed from the chamber and stained with Diff-Quik (Sysmex, Cat: 16920) to detect cells that migrated through membrane pores to the lower compartment.
The peptides listed below were custom synthesized using the solid phase method by Medical & Biological Laboratories (MBL). The peptides were synthesized based on the mouse HMGB1 sequence (SEQ ID NO: 3). Synthetic peptides described in subsequent Examples were also prepared based on the mouse HMGB1 sequence. • A synthetic peptide consisting of the amino acid sequence from positions 1 to 10 of HMGB1 (1-10); • a synthetic peptide consisting of the amino acid sequence from positions 1 to 34 of HMGB1 (1-34); • a synthetic peptide consisting of the amino acid sequence from positions 37 to 62 of HMGB1 (37-62); • a synthetic peptide consisting of the amino acid sequence from positions 27 to 62 of HMGB1 (27-62); • a synthetic peptide consisting of the amino acid sequence from positions 56 to 72 of HMGB1 (56-72); • a synthetic peptide consisting of the amino acid sequence from positions 11 to 20 of HMGB1 (11-20); • a synthetic peptide consisting of the amino acid sequence from positions 11 to 25 of HMGB1 (11-25); • a synthetic peptide consisting of the amino acid sequence from positions 11 to 30 of HMGB1 (11-30); • a synthetic peptide consisting of the amino acid sequence from positions 11 to 34 of HMGB1 (11-34); • a synthetic peptide consisting of the amino acid sequence from positions 11 to 44 of HMGB1 (11-44); • a synthetic peptide consisting of the amino acid sequence from positions 17 to 44 of HMGB1 (17-44); • a synthetic peptide consisting of the amino acid sequence from positions 1 to 25 of HMGB1 (1-25); and the whole mouse HMGB1 produced in HEK293 (1-215(HEK)) as a positive control were adjusted to 100 μg/ml and placed in the lower layer of a chemotaxis chamber to assess the migration-promoting activity on bone marrow mesenchymal stem cell line (MSC-1). Results
As positive controls, centrifuged supernatant of the skin of a one-day-old mouse (one individual) incubated in PBS at 4° C. for 12 hours, and the whole mouse HMGB1 (HMGB1(HEK_1-215)) produced in HEK293 were used. […]

Where [1] appears, read: synthetic peptides, 5 μM, FIGS. 8A and 8B.
Setting [2] is: synthetic peptides, 100 μg/ml, positive control 1-215(HEK), FIG. 7.
Setting [3] is: 2 μM, area of migrated cells by image analysis, FIG. 10.
[4] abbreviates: peptides produced using HEK293, 5, 15 and 25 μg/ml, FIG. 3.
Setting [5] is: protein and peptides produced using HEK293 (mouse HMGB1), 50 μg/ml, 4 h, FIG. 2A.

Entries after “also recorded” stand apart in the source; their conditions may differ.

As for “1-42: peptide comprising the amino acid sequence of positions 1 to 42, produced using HEK293 (MGKGDPKKPRGKMSSYAFFVQTCREEHKKKHPDASVNFSEFS; UniProt P63158 1-42, looked up, fragment)”, the “activity of promoting the migration of MSC-1” value (“activity … of MSC-1” for short) is recorded as “showed the activity of promoting the migration of bone marrow mesenchymal stem line MSC-1”.
Same read-out and setting: as for “1-50: peptide comprising the amino acid sequence of positions 1 to 50, produced using HEK293 (MGKGDPKKPRGKMSSYAFFVQTCREEHKKKHPDASVNFSEFSKKCSERWK; UniProt P63158 1-50, looked up, fragment)”, the entry is “showed the activity of promoting the migration of bone marrow mesenchymal stem line MSC-1”.
As for “(14-25): synthetic peptide consisting of the amino acid sequence from positions 14 to 25 of HMGB1 (SSYAFFVQTCRE; UniProt P09429 14-25, looked up, fragment)”, the migration-promoting activity result under setting [1] is on record as “weak activity”.
“(11-34): synthetic peptide consisting of the amino acid sequence from positions 11 to 34 of HMGB1 (GKMSSYAFFVQTCREEHKKKHPDA; UniProt P09429 11-34, looked up, fragment)”: the migration-promoting activity entry under setting [2] is given as “activity comparable to or higher than that of the positive control”.
As to “(12-25): synthetic peptide consisting of the amino acid sequence from positions 12 to 25 of HMGB1 (KMSSYAFFVQTCRE; UniProt P09429 12-25, looked up, fragment)”, under setting [1], the migration-promoting activity entry was “weak activity”.
For the molecule “peptide (1-44) produced in E. coli: amino acids of positions 1 to 44 of mouse HMGB1 produced using E. coli, tag removed by HRV3C (MGKGDPKKPRGKMSSYAFFVQTCREEHKKKHPDASVNFSEFSKK; UniProt P63158 1-44, looked up, fragment)”, under setting [3], the “migration-promoting activity relative to the full-length HMGB1, compared per equal mass” value was “about 8 times” and the “migration-promoting activity relative to the full-length HMGB1, compared per equal mole” value was “about 1.6 times”.
As for “(11-28): synthetic peptide consisting of the amino acid sequence from positions 11 to 28 of HMGB1 (GKMSSYAFFVQTCREEHK; UniProt P09429 11-28, looked up, fragment)”, under setting [1], the migration-promoting activity entry is “strong migration-promoting activity”.
In the case of “(13-30): synthetic peptide consisting of the amino acid sequence from positions 13 to 30 of HMGB1 (MSSYAFFVQTCREEHKKK; UniProt P09429 13-30, looked up, fragment)”, the migration-promoting activity entry under setting [1] is given as “strong migration-promoting activity”.
As to “1-45: peptide comprising the amino acid sequence of positions 1 to 45, produced using HEK293 (MGKGDPKKPRGKMSSYAFFVQTCREEHKKKHPDASVNFSEFSKKC; UniProt P63158 1-45, looked up, fragment)”, the “activity … of MSC-1” value was “showed the activity of promoting the migration of bone marrow mesenchymal stem line MSC-1”.
For “(17-30): synthetic peptide consisting of the amino acid sequence from positions 17 to 30 of HMGB1 (AFFVQTCREEHKKK; UniProt P09429 17-30, looked up, fragment)”, the migration-promoting activity result under setting [1] is listed as “weak activity”.
On the same count and under the same terms, the entry for “(16-30): synthetic peptide consisting of the amino acid sequence from positions 16 to 30 of HMGB1 (YAFFVQTCREEHKKK; UniProt P09429 16-30, looked up, fragment)” is “weak activity”.
Take “(11-25): synthetic peptide consisting of the amino acid sequence from positions 11 to 25 of HMGB1 (GKMSSYAFFVQTCRE; UniProt P09429 11-25, looked up, fragment)”: the migration-promoting activity entry under setting [1] was “weak activity” and the migration-promoting activity result under setting [2] was “found to have the activity”.

B1: 45-215: peptide of positions 45 to 215 of HMGB1, produced using HEK293 (protein, UniProt P09429 45-215, looked up, fragment)
chain: CSERWKTMSAKEKGKFEDMAKADKARYEREMKTYIPPKGETKKKFKDPNAPKRPPSAFFLFCSEYRPKIKGEHPGLSIGDVAKKLGEMWNNTAADDKQPYEKKAAKLKEKYEKDIAAYRAKGKPDAAKKGVVKAEKSKKKKEEEEDEEDEEDEEEEEDEEDEDEEEDDDDE
B1: the migration-promoting activity result under setting [4] is “exhibited migration-promoting activity in a concentration-dependent manner; also recorded: stronger as compared to 63-215”.

B2: 63-215: peptide of positions 63 to 215 of HMGB1, produced using HEK293 (protein, UniProt P63158 63-215, looked up, fragment)
chain: MAKADKARYEREMKTYIPPKGETKKKFKDPNAPKRPPSAFFLFCSEYRPKIKGEHPGLSIGDVAKKLGEMWNNTAADDKQPYEKKAAKLKEKYEKDIAAYRAKGKPDAAKKGVVKAEKSKKKKEEEDDEEDEEDEEEEEEEEDEDEEEDDDDE
In the case of B2, under setting [4], the migration-promoting activity entry is recorded as “exhibited migration-promoting activity in a concentration-dependent manner”.

B3: 1-84: peptide of positions 1 to 84 of mouse HMGB1, produced using HEK293 (protein, UniProt P63158 1-84, looked up, fragment)
chain: MGKGDPKKPRGKMSSYAFFVQTCREEHKKKHPDASVNFSEFSKKCSERWKTMSAKEKGKFEDMAKADKARYEREMKTYIPPKGE
As to B3, the migration-promoting activity result under setting [5] is listed as “showed migration-promoting activity”.

B4: 2-215: human HMGB1 positions 2 to 215 produced in E. coli, nearly the full length, positive control (protein, UniProt P09429 2-215, looked up, fragment)
chain: GKGDPKKPRGKMSSYAFFVQTCREEHKKKHPDASVNFSEFSKKCSERWKTMSAKEKGKFEDMAKADKARYEREMKTYIPPKGETKKKFKDPNAPKRPPSAFFLFCSEYRPKIKGEHPGLSIGDVAKKLGEMWNNTAADDKQPYEKKAAKLKEKYEKDIAAYRAKGKPDAAKKGVVKAEKSKKKKEEEEDEEDEEDEEEEEDEEDEDEEEDDDDE
B4: the migration-promoting activity result (human HMGB1 fragments produced in E. coli, 2 μM, FIG. 18B) is “showed migration-promoting activity on bone marrow mesenchymal stem cells”.

B5: 85-169: peptide of positions 85 to 169 of mouse HMGB1, produced using HEK293 (protein, UniProt P63158 85-169, looked up, fragment)
chain: TKKKFKDPNAPKRPPSAFFLFCSEYRPKIKGEHPGLSIGDVAKKLGEMWNNTAADDKQPYEKKAAKLKEKYEKDIAAYRAKGKPD
As for B5, under setting [5], the migration-promoting activity entry is listed as “did not show detectable migration-promoting activity”.

B6: 1-62: peptide comprising the amino acid sequence of positions 1 to 62, produced using HEK293 (protein, UniProt P63158 1-62, looked up, fragment)
chain: MGKGDPKKPRGKMSSYAFFVQTCREEHKKKHPDASVNFSEFSKKCSERWKTMSAKEKGKFED
Turning to B6, the “activity … of MSC-1” value is given as “showed the activity of promoting the migration of bone marrow mesenchymal stem line MSC-1”.
